“Also recorded” adds a separate entry of the source.
Legend:
[1] = system: rats (polytrauma with 40% hemorrhage); test: HOE140 on tissue wet/dry weight ratio after polytrauma with 40% hemorrhage and lactated Ringer's resuscitation (FIG. 12); format: in vivo; details: for wet/dry weight ratio, brain: HOE140 0.4 mg/kg i.v. bolus 45 min after trauma, tissues 1 hour after resuscitation, vehicle 4.735±0.024
Procedure: FIG. 12. The effect of bradykinin receptor antagonist (HOE140) on tissue water content/vascular permeability in the brain, lung and skeletal muscle after polytrauma/hemorrhage and resuscitation of lactate Ringer's fluid (20% of Blood Volume). HOE140 or vehicle were given intravenously in rats (n=4/group) at 45 min after trauma (15 min prior to resuscitation of lactate Ringer's fluid). The tissues were harvested 2 hours after trauma. Values represent as means±SD. *:p<0.05 as compared with vehicle.
HOE140 (0.4 mg/kg) was administrated as a bolus intravenously at 45 min after trauma (15 min prior to Lactated Ringer's fluid resuscitation). At 1 hour after resuscitation, the rats were euthanized and the tissues were harvested for wet weight, and then transferred into the oven at 60° C. for 14 days to be weighed as dry weight. The wet/dry ratio represented the water content of the tissue.
Icatibant (HOE140), which is a selective competitive antagonist at the bradykinin type 2 (B2) receptor, is a synthetic decapeptide with a structure similar to bradykinin, but with 5 nonproteinogenic amino acids. It consists of ten amino acids in the following sequence: H-D-Arg-Arg-Pro-Hyp-Gly-Thi-Ser-D-Tic-Oic-Arg-OH. HOE140 (0.4 mg/kg in lactate Ringer's fluid) was administrated as a bolus intravenously at 45 min after trauma (15 min prior to lactated Ringer's fluid resuscitation (20% of Blood Volume)). At 1 hour after resuscitation, the rats were euthanized and the tissues were harvested for wet weight, and then transferred into the oven at 60° C. for 14 days to be weighed as dry weight. The wet/dry ratio represented the water content of the tissue.

[2] = system: rats with polytrauma and hemorrhage; test: TXA in polytrauma/hemorrhage (FIG. 11); format: in vivo
Procedure: FIG. 11. The effect of anti-fibrinolytic agent (tranexamic acid; TXA) on polytrauma/hemorrhage. Single dose of TXA (10 mg/kg) given prior to trauma. (FIG. 11A) Prothrombin time. Values represent as means±SEM. *:p<0.05, significant difference between TXA and Vehicle; #:p<0.05, significant difference as compared with baseline. (FIG. 11B) Lung wet/dry weight ratio. TXA was given just before trauma (BT, red), just after trauma (AT, green) and 45 min after the end of trauma (yellow). Values represent as means±SEM. *:p<0.05, significant difference as compared with vehicle. (FIG. 11C) Acute lung injury. TXA given 45 min after trauma (and 15 min prior to resuscitation). Levels of platelet and leukocytes (neutrophils and monocytes) infiltration, and C5a and neutrophil elastase in the lung as compared with FWB. *:p<0.05, significant difference between FWB and FWB/TXA; #:p<0.05, significant difference as compared with Non-R; $:p<0.05, significant difference as compared with Non-R, FWB and FWB/TXA. Values represent as means±SEM. Non-R: Non-Resuscitation; FWB: Fresh Whole Blood; TXA: Tranexamic Acid; AT: After Trauma; BT: Before Trauma.
Briefly, Sprague-Dawley rats (350-450 gram) were anesthetized with isoflurane/100% oxygen through a nosecone and allowed to breathe spontaneously. Cannulas were placed in the left femoral artery and vein for measurement of arterial blood pressure and to obtain vascular access (blood draw and resuscitation and drug administration) respectively. Polytrauma was induced by laparotomy, crush injury to the small intestines, the […], and the right leg skeletal muscle and by fracture of the right femur. In detail, a midline incision was made through the abdominal skin and underlying muscle layers. A 10-cm section of small intestines was isolated just anterior to the cecum and run gently through a clamp covered with silastic tubing with a 2-mm distance between the clamps to cause a gentle crush injury. The right and medial lobes of the liver will receive three crushes to each lobe using the same clamp. The intestines and liver were replaced, and the abdominal incision was closed with sutures in two layers. To fracture the […], a modification of a 3-point impact device was used by dropping six stainless-steel balls (65 g each) stacked together, from 36 inches through a guide tube (1 inch internal diameter) to impact on a rounded aluminum blade resting on the mid-right femur with the right leg resting on two aluminum stands, one under the hip and one under the knee. A large hemostat (5 in tongs) was used to clamp the muscle of the right leg 10 times. The crush injury was intended to cause microvascular damage, as opposed to cutting, chopping, or mincing of the tissue, which would have led to uncontrolled hemorrhage. The polytrauma was performed about 10 min followed immediately by hemorrhage. Blood volume was estimated as 6% of body weight±0.77. The rats were bled to lower mean arterial pressure to 40 mmHg within 5 min and maintained at 40 mmHg until 40% of estimated blood volume is removed. Hemorrhage is usually completed within 30 min. Hemorrhage was then discontinued, and blood pressure and heart rate will be allowed to freely compensate.
TXA was given just before trauma (BT, red), just after trauma (AT, green) and 45 min after the end of trauma (yellow). […] TXA was given 45 min after trauma (15 min prior to resuscitation).

[3] = TXA 15 min prior to FWB resuscitation at 60 min after trauma
[4] = single dose TXA 10 mg/kg prior to trauma

Compound	tissue wet/dry weight ratio / tissue water content and vascular permeability ([1]; HOE140 0.4 mg/kg i.v.)	wet/dry weight ratio, brain ([1]; n=4)	wet/dry weight ratio, brain ([1]; n=4, 0.4 mg/kg)	tissue wet/dry weight ratio / tissue water content and vascular permeability ([1]; HOE140 0.4 mg/kg i.v., 0.4 mg/kg)	wet/dry weight ratio, traumatized skeletal muscle ([1]; HOE140 0.4 mg/kg i.v., n=4, vehicle 4.491±0.112)	wet/dry weight ratio, intestine ([1]; HOE140 0.4 mg/kg i.v., n=4, vehicle 4.528±0.112)	fluid movement into the lung (ALI, lung wet/dry weight ratio) ([2]; TXA 10 mg/kg just after trauma and 45 min after the end of trauma)	level of C5a in the lung as compared with FWB [2, 3]	level of neutrophil elastase in the lung as compared with FWB [2, 3]	platelet and leukocyte infiltration in the lung as compared with FWB [2, 3]	circulatory plasmin activity ([2]; current study)	prothrombin time (PT) at 30 min after trauma [2, 4]	prothrombin time (PT) at 120 min after trauma [2, 4]
NC(N)=NCCC[C@@H](N)C(=O)N[C@@H](CCCN=C(N)N)C(=O)N1CCC[C@H]1C(=O)N1C[C@H](O)C[C@H]1C(=O)NCC(=O)N[C@@H](Cc1cccs1)C(=O)N[C@@H](CO)C(=O)N1Cc2ccccc2C[C@@H]1C(=O)N1[C@H](C(=O)N[C@@H](CCCN=C(N)N)C(=O)O)C[C@@H]2CCCC[C@@H]21 [Icatibant, H-D-Arg-Arg-Pro-Hyp-Gly-Thi-Ser-D-Tic-Oic-Arg-OH]	attenuated tissue wet/dry weight ratio	4.674±0.023	significantly declined	attenuated tissue wet/dry weight ratio; also recorded: reduced	4.247±0.176	4.399±0.090	–	–	–	–	–	–	–
NC[C@H]1CC[C@H](C(=O)O)CC1 [TXA, tranexamic acid]	–	–	–	–	–	–	reduces fluid movement into the lung	significantly reduced	significantly reduced	significantly reduced	not significantly changed	delayed elevation of prothrombin time	significantly elevated

Source: patent US20250041302A1, “PROLYL HYDROXYLASE DOMAIN INHIBITOR FOR TREATING HEMORRHAGIC OR BURN SHOCK” (THE GOVERNMENT OF THE UNITED STATES, AS REPRESENTED BY THE …, priority 2022, published 2025)
